# From ChEMBL document CHEMBL1201862, “PubChem BioAssay data set” (2004)
# Calls of active or inactive are those of the source.
# How the values were obtained:
# [1] = target: T1, Caspase-3 (Homo sapiens, UniProt P42574); type: functional;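 further: Dose-response selectivity test against caspase-3 for candidate inhibitors of sentrin-specific proteases (SENPs)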
# T1 sequence (P42574 whole entry): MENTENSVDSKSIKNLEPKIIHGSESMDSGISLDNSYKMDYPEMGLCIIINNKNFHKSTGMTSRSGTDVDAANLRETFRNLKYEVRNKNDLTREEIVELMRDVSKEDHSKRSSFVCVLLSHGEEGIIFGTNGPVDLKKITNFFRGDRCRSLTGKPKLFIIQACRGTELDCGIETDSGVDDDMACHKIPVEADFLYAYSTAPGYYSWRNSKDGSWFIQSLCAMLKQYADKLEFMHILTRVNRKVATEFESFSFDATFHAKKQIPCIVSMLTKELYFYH
# [2] = target: T2, Sentrin-specific protease 7 (Homo sapiens, UniProt Q9BQF6); type: functional;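 further: Luminescence-based dose-response confirmation of ultra-high-throughput screening hits, measuring inhibition of SENP7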
# T2 sequence (Q9BQF6 whole entry): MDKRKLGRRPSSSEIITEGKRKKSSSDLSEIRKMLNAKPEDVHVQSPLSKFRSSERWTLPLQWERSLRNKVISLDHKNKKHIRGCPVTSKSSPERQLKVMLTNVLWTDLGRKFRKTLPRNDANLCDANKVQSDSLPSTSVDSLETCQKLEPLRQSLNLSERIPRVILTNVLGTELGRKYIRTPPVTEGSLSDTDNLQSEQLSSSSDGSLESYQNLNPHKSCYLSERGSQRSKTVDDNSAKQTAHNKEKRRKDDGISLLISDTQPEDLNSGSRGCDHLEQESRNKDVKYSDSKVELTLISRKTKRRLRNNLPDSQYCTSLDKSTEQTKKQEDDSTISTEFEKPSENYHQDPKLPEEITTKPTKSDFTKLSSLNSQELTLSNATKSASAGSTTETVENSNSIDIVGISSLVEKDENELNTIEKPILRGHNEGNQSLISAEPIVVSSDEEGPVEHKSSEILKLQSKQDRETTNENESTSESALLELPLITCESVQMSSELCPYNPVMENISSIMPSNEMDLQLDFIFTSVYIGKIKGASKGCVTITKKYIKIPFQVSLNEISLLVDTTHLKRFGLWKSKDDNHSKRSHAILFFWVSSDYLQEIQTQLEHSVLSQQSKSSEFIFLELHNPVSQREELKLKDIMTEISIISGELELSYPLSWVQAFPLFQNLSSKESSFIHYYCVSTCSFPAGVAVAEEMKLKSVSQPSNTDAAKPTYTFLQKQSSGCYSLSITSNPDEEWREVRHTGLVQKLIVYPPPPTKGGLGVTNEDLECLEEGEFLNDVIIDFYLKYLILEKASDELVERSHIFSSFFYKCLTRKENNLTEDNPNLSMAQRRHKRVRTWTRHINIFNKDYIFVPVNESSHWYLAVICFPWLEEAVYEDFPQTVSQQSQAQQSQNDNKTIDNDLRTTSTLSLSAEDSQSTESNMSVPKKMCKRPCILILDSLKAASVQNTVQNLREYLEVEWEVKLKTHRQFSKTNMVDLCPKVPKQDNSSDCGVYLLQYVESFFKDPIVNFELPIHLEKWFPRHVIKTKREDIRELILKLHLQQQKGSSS
# [3] = target: T3, Heat shock factor protein 1 (Mus musculus, UniProt P38532); test: HSF1 potentiators in luciferase reporter cells, confirmation, cell-based, NIH3T3, luminescence, dose retest (AID 435004); type: functional;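 further: stress induced by proteasome inhibitor MG132 added 30 min after compound; luciferase reporter driven by HSF1 response element in NIH3T3 cells; actives raise luminescence as potentiators of the MG132 stress response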
# T3 sequence (P38532 whole entry): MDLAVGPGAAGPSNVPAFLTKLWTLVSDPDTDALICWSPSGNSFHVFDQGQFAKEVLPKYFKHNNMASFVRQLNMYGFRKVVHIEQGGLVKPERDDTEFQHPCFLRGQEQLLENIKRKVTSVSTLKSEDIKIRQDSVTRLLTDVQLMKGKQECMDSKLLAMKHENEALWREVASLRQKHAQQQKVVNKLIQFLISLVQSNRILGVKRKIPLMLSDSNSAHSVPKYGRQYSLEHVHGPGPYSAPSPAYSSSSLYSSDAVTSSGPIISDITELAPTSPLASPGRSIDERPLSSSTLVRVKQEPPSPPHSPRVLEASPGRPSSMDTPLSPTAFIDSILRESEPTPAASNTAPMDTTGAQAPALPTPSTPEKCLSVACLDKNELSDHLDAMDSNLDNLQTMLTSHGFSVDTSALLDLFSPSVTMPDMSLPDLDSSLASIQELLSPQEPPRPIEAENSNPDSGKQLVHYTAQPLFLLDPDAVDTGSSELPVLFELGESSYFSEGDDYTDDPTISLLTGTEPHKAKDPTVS
# [4] = target: T4, Sentrin-specific protease 6 (Homo sapiens, UniProt Q9GZR1); type: functional;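 further: Luminescence-based dose-response confirmatory assay of SENP6 inhibition, following up an ultra-high-throughput screen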
# T4 sequence (Q9GZR1 whole entry): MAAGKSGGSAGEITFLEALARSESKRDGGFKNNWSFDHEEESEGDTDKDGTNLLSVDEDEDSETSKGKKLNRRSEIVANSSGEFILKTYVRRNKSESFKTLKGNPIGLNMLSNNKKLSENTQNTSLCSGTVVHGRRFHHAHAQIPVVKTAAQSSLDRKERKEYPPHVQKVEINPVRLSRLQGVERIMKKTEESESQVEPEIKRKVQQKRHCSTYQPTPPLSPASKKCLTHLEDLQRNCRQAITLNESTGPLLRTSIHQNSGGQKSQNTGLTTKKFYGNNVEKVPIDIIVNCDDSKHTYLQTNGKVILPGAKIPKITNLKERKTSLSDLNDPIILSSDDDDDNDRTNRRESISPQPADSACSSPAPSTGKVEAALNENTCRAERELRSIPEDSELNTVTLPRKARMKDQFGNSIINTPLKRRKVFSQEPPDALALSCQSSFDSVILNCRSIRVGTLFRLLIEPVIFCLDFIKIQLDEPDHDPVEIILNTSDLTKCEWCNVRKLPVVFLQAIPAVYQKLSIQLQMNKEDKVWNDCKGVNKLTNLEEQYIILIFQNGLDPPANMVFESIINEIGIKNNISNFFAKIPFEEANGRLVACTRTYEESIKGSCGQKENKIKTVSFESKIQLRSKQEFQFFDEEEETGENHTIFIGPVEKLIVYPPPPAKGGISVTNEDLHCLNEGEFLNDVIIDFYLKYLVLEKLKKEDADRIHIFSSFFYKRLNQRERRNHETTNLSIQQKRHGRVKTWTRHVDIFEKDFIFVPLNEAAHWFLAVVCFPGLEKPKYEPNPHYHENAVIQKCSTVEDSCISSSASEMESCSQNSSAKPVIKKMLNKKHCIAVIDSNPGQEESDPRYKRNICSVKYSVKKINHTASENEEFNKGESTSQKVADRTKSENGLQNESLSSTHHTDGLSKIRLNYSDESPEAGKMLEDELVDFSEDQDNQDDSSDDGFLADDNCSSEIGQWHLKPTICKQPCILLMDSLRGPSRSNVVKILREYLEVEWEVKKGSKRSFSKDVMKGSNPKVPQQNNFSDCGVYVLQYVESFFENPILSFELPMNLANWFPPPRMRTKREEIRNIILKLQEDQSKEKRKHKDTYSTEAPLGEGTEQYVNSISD
# [5] = target: T5, Sentrin-specific protease 8 (Homo sapiens, UniProt Q96LD8); type: functional;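 further: luminescence read-out of SENP8 inhibition, dose-response confirmation following an ultra-high-throughput screen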
# T5 sequence (Q96LD8 whole entry): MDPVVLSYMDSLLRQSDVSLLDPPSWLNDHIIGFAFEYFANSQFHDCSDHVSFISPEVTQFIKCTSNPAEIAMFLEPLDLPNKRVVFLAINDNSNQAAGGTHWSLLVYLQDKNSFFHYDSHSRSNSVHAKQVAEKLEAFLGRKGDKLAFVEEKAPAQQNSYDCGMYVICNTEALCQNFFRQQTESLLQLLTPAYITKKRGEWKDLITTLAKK
# [6] = target: T6, Oxysterols receptor LXR-beta (Homo sapiens, UniProt P55055); type: functional, cell-based;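 further: Cell-based luminescence dose-response assay of agonist activity at LXR, run as a confirmatory counterscreen to a daf-12 agonist screen; HEK293 cells with Gal4-LXR fusion and GAL4-driven luciferase reporter; agonist potency from rising luciferase signal of a Gal4-LXR reporter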
# T6 sequence (P55055 whole entry): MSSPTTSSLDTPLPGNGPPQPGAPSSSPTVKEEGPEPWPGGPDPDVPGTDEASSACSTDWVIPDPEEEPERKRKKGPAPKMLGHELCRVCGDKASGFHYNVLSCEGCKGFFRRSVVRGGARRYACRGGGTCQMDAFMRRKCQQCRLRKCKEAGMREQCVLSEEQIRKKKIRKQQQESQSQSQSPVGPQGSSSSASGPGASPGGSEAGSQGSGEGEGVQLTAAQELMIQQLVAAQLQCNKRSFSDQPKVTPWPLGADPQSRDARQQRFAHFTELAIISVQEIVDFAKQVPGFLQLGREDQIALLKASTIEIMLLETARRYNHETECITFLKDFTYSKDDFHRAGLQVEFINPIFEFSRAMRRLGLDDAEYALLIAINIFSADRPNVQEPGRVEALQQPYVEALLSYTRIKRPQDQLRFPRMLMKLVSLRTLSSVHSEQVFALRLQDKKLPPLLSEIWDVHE
# [7] = cells
# [8] = target: Transthyretin (Homo sapiens, UniProt P02766); test: Luminescence-based cell-based high throughput dose response assay to identify activators of Transthyretin (TTR) transcription.; type: functional
# [9] = target: Paired box protein Pax-8 (Homo sapiens, UniProt Q06710); test: inhibitors of PAX8-driven TPO luciferase reporter, dose response, RMG-I cells, cherry-pick (AID 687027); type: functional, cell-based;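 further: luciferase reporter driven by Pax8 target thyroperoxidase promoter measured by SteadyGlo luminescence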
# Chain of Paired box protein Pax-8 (Q06710 whole entry): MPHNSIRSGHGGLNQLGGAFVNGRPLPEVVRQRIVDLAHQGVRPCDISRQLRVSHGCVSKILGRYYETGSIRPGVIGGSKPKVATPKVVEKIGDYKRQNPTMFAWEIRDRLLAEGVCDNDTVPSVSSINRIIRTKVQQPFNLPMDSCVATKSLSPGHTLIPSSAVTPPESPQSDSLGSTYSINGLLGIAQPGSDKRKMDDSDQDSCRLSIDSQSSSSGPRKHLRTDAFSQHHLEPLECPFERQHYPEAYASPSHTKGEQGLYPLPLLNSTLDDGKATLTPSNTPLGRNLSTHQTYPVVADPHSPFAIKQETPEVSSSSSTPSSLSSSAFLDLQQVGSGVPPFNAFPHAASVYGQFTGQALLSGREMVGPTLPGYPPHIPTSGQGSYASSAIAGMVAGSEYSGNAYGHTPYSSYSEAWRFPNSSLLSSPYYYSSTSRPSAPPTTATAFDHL
# [10] = inhibitors of PGC1a acetylation in cells, dose response, cell-based, cherry-picked samples (AID 720514); type: functional;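 further: potency may reflect raised or lowered acetylation signal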
# [11] = inhibitors of HIV Env-driven cell fusion, dose response, cherry-pick (AID 652057); type: functional, cell-based
# [12] = ZM109 Env clade C HIV-1 fusion inhibitors, dose response, HeLa effector, CEM target cells, luciferase, cherry-pick (AID 652058); type: functional, cell-based
# [13] = inhibitors of clade B AD8 Env fusion, dose response, cell-based, cherry-pick (AID 652062); type: functional;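 further: luciferase signal from cell-cell fusion driven by HIV-1 clade B AD8 Env; potency is for inhibitors of fusion seen as a drop in luminescence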
# [14] = P. falciparum 3D7-ScDHODH growth inhibitors, dose response, SYBR Green, dry powder samples (AID 1159570); type: functional, cell-based;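 further: parasite growth measured after 72 hours of compound exposure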
# [15] = P. falciparum Dd2 growth inhibitors, dose response, SYBR Green, cherry-picked samples (AID 1159567); type: functional, cell-based
# [16] = P. falciparum Dd2 growth inhibitors, dose response, SYBR Green, dry powder samples (AID 1159566); type: functional, cell-based;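 further: potency for growth inhibition with lower SYBR green DNA signal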
# [17] = P. falciparum ATP4 D1247Y mutant growth inhibitors, dose response, NITD609-resistant line, SYBR Green, dry powder (AID 1159571); type: functional, cell-based;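 further: parasites synchronized at ring stage by sorbitol before testing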
# [18] = target: Heat shock protein HSP 90-alpha (Homo sapiens, UniProt P07900); type: functional, organism-based
# [19] = Shn3 3'UTR reporter inhibitors, dose response, cell-based, Clone20 osteoblasts, firefly luciferase, cherry-picked (AID 624132); type: functional;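 further: firefly luciferase luminescence from reporter carrying the Shn3 3'UTR in osteoblasts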
# [20] = control 3'UTR Renilla luciferase suppression, dose response, counter-screen for Shn3 inhibitor project, cell-based, Clone20-Shn3RL, cherry-picked (AID 624133); type: functional
# [21] = Fluorescence-based cell-based high throughput dose response assay for inhibitors of the interaction of nucleotide-binding oligomerization domain containing 2 (NOD2) and the receptor-interacting serine-threonine kinase 2 (RIPK2).; type: functional; settings: Homo sapiens
# [22] = test system: HeLa; test: HeLa cell cytotoxicity, dose response, cytotoxicity control, ATP luminescence, cherry-pick samples (AID 687004); type: functional, cell-based; settings: Homo sapiens
smiles,measurement,setting,value
c1ccc(N2CC3CCc4ccccc4C3=N2)cc1 (stereo not drawn),IC50,[1],23.3 µM (active)
same,IC50,[2],5.67 µM (active)
same,EC50,[3],114 µM (active)
same,IC50,[4],30.4 µM (active)
same,IC50,[5],58.4 µM (active)
same,EC50,[6],> 67.5 µM (inactive)
same,EC50,[7],> 67.5 µM (inactive)
CN(Cc1ccccc1)C(=O)c1[nH]cnc1C(=O)NCC(=O)OC(C)(C)C,EC50,[8],> 167 µM (inactive)
Cc1ccc(S(=O)(=O)N(C)C[C@@H]2Oc3cc(C#Cc4ccncc4)ccc3S(=O)(=O)N([C@@H](C)CO)C[C@H]2C)cc1,AC50,[9],2.51 µM (active)
same,AC50,[10],2.39 µM (active)
COc1ccc(S(=O)(=O)Nc2ccc3c(c2)CC(=O)N([C@@H](C)CO)C[C@H](C)[C@H](CN(C)S(=O)(=O)c2ccc(C)cc2)O3)cc1,AC50,[11],3.56 µM (active)
same,AC50,[12],23.8 µM (active)
same,AC50,[13],33.9 µM (active)
same,AC50,[14],0.928 µM (active)
same,AC50,[15],1.7 µM (active)
same,AC50,[16],0.563 µM (active)
same,AC50,[17],0.553 µM (active)
CC(=O)OC1(C)CC(C)C(=O)C(C(O)CC2CC(=O)NC(=O)C2)C1 (stereo not drawn),AC50,[18],< 0.195 µM (active)
same,AC50,[19],< 0.26 µM (active)
same,AC50,[20],< 0.26 µM (active)
same,IC50,[21],49.8 µM (inactive)
same,AC50,[22],14.5 µM (active)
same,AC50,[10],< 0.16 µM (active)
